Values quoted from earlier work, collected in patent US8529954B2, “Composition based on gamma-hydroxybutyric acid” (Debregeas et Associes Pharma, priority 2008, dated 2013).
Structures can show the parent of a compound that is named as a salt.

Legend:
[1] = approximately

Q: Which “stability in an acidic environment” value does the source give for O=C(O)CCCO [GHB, Gamma-hydroxybutyric acid] here?
A: unstable

Q: Which “maximum peak after its administration (time of peak)” value ([1]; absorbed by the gastroenteric system) does the source give for O=C(O)CCCO [sodium hydroxybutyrate, sodium salt of 4-hydroxybutyric acid] here?
A: 30 to 45 min

Q: What about the half life [1] of the same compound?
A: 20 to 25 min

Q: And the “time in which it is eliminated” value [1]?
A: 4 to 5 h
